Assay results taken from patent US20260183223A1, “A PERSONAL CARE COMPOSITION” (Conopco, Inc., d/b/a UNILEVER, priority 2022, published 2026).

Test system: collagen type III alpha I chain (COL3A1) gene
Test: Gene expression test: COL3A1 by RT-PCR in normal human dermal fibroblasts
Format: cell-based
Details: normal human dermal fibroblasts (NHDF), 48 hours incubation with actives in medium; normalized to ACTB; fold change relative to blank control; actives in wt % of medium
Protocol: The normal human dermal fibroblasts (NHDF, Biocell, Xi′an, China, Cat: Fb20081902) were incubated in medium together with or without actives for 48 hours. After incubation, the total RNA for each […] was extracted using RNAex Pro reagent (Accurate Biotechnology, Cat: AG21102) according to manufacturer's protocol.
The extracted RNA was quantified using Nanodrop 2000 spectrometer (Thermo Fisher Scientific, Waltham, MA, US) and reverse transcribed to generate the template cDNA using the Evo M-MLV RT Premix for qPCR (Accurate Biotechnology, Cat: AG11706) according to manufacturer's protocol. Amplification of the gene encoding collagen type III alpha I chain (COL3A1) gene was performed with RT-PCR reagent (SYBR® Green Premix Pro Taq HS qPCR Kit, Accurate Biotechnology, Cat: AG11701) on the ABI Vii 7 Real-Time PCR Systems (Applied Biosystems, Thermo fisher scientific, Carlsbad, CA, USA). The beta-actin (ACTB) gene was selected as the housekeeping gene and all data on relative expression of the target genes was normalized to ACTB gene. The fold changes in expression were calculated relative to the blank control (medium having no active).

Substance: Lysine carboxymethyl cysteinate
- Fold change of expression of COL3A1: 1.1
